In brackets after ≈: the same amount, converted by molar mass. Where two headings read alike, the source gives them in different places.
Legend:
Vero cells = assay: In vitro cytotoxicity assay (MTT); format: cell-based, African green monkey; settings: Chlorocebus sabaeus, 72 h
Experimental: Vero epithelial cells (from African green monkey; ATCC CCL-81) were cultured in Dulbecco's modified Eagle's medium (DMEM) supplemented with 10% fetal bovine serum (FBS) and maintained in a humidified incubator (37°C in 5% CO2). Cells were dislodged with a cell scraper, collected by centrifugation, resuspended in fresh medium at ∼10^6 cells/ml, dispensed into 96-well microtiter plates ([…]), and incubated for 18 h at 37°C. Twofold serial dilutions of test compounds in DMEM with FBS were subsequently added, and cells were incubated for another 72 h. In triplicate studies, the cytopathic effects of compounds were evaluated colorimetrically by using the 3-(4,5-dimethyl-2-thiazolyl)-2,5-diphenyl-2H-tetrazolium bromide (MTT) cell proliferation assay (ATCC). IC50 data were obtained from dose-response curves plotted by using GraphPad Prism 5.

M. tuberculosis H37Rv [1] = assay: MIC for M. tuberculosis H37Rv (resazurin/alamarBlue); format: cell-based, Mycobacterium tuberculosis; settings: for MIC: Mycobacterium tuberculosis, H37RV, read-out: MIC M.tb H37Rv
M. tuberculosis LeuRS = M. tuberculosis LeuRS (Mycobacterium tuberculosis, UniProt P9WFV1); assay: biochemical; set-up: species or system M. tuberculosis H37Rv
Sequence of M. tuberculosis LeuRS (P9WFV1 whole entry): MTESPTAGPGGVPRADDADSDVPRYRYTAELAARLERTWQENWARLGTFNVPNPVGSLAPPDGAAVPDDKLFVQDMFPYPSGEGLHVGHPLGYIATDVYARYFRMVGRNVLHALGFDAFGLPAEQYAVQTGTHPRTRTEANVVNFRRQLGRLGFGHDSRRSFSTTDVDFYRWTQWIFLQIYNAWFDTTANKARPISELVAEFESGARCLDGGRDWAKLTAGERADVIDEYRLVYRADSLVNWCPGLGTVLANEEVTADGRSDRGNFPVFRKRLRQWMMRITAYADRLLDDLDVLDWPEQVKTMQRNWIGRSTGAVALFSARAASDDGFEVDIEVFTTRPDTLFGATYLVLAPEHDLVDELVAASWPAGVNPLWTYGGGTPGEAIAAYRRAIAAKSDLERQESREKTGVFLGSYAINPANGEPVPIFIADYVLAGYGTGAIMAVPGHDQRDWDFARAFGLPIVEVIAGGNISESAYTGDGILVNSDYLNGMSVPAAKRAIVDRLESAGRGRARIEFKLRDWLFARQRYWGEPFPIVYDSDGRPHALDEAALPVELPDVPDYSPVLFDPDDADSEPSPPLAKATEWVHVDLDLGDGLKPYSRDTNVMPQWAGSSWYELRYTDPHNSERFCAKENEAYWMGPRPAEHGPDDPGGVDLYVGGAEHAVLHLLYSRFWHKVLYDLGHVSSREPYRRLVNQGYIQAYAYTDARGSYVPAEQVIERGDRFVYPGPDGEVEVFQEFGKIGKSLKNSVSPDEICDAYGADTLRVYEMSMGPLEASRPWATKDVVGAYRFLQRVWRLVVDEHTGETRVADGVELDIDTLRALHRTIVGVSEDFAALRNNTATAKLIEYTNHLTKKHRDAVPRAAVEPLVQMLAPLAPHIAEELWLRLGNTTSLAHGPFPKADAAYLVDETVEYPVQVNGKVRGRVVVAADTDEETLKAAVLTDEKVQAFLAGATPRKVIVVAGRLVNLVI

COX1 in HepG2 cells = assay: Mitochondrial protein synthesis assay, COX1 level; format: cell-based; settings: Homo sapiens, 168 h; HepG2, 7 days; read-out: Mean EC50 ± SD COX1
Experimental: (§1) The human liver carcinoma-derived HepG2 cell line was obtained from the ATCC (ATCC HB-8065). HepG2 cells were grown in Dulbecco's modified Eagle's medium containing 10% fetal calf serum, 1 mM sodium pyruvate, 0.1 mM essential amino acids, and 50 U/ml penicillin-streptomycin at 37°C with 5% CO2. HepG2 cells were seeded into 96-well plates at 3,000 cells/200 μl/well in cell culture medium. Cells were then grown in the presence of the compounds at 37°C in 10% CO2 for 7 days in at least duplicate concentrations, with the medium and compounds being replaced on the fourth day. After 7 days, the levels of SDHA (subunit A of the succinate dehydrogenase complex) and COX1 (cytochrome c oxidase) were determined by using the MitoSciences In-Cell enzyme-linked immunosorbent assay (ELISA) kit. Janus green staining was used to determined cell viability after 7 days (In-Cell ELISA kit, catalog number MS643).

SDHA in HepG2 cells = assay: Mitochondrial protein synthesis assay, SDHA level; format: cell-based; settings: Homo sapiens, 168 h; HepG2, 7 days; read-out: Mean EC50 ± SD SDHA
Experimental: as §1

M. tuberculosis H37Rv [2] = format: in vivo, C57BL/6J mice; settings: mouse, in vivo
HepG2 cells = assay: HepG2 cell viability (Janus green staining); format: cell-based; settings: Homo sapiens, 168 h, HepG2, 7 days, read-out: Mean EC50 ± SD Cell viability
Experimental: as §1

[3] = biological target: M. tuberculosis LeuRS editing domain (Mycobacterium tuberculosis, UniProt P9WFV1); assay: biochemical; format: binding; settings: ITC, 25°C, with AMP
Sequence of M. tuberculosis LeuRS editing domain (P9WFV1 309-513): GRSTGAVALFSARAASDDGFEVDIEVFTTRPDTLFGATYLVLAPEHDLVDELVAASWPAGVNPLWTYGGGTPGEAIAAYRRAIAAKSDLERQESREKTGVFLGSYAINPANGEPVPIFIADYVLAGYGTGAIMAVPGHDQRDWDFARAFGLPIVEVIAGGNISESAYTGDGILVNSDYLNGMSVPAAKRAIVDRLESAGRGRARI

in vitro = in vitro ADME; settings: mouse plasma, 1 and 10 µg/ml, ultrafiltration; read-out: Mouse PPB (converted)
Experimental: Compounds were added to 1.5-ml aliquots of mouse plasma at concentrations of 1 and 10 µg/ml and then incubated in a shaking water bath at 37°C for 15 min. Both samples were treated similarly, and a 0.5-ml aliquot was removed from each tube and added to the filter reservoir of Microcon centrifugal filter devices (Ultracel YM-30 with a molecular mass cutoff of 30 kDa). The devices were centrifuged at 1,000 × g for 10 min, and 100 μl of the filtrate was transferred to a 96-well plate and diluted 5-fold. Ten-microliter volumes of the samples were injected and analyzed with the LC-MS/MS system. All samples were analyzed in duplicate. Quantitation was based on the peak area ratio of the analyte over the internal standard, and all integrations were performed with peak areas by using Analyst version 1.4.1 (Applied Biosystems, Foster City, CA, USA). Plasma protein binding was calculated based on the following equation: Plasma Protein Binding (%)=(PeakAreaPlasma UltrafilrateSpiked−PeakAreaPlasmaFiltrate)/PeakAreaPlasma UltrafiltrateSpiked×100

in vivo = settings: mouse, 30 mg/kg
Experimental: Mouse pharmacokinetic studies were conducted by using female CD-1 mice for compounds 1, 11, and 12, while BALB/c mice were used for compound 13. Mouse body weights were 19 to 28 g, and on the morning of dosing, mice were split randomly into 3 dosing groups to receive the test article by either intravenous (i.v.) tail vein injection or oral (p.o.) gavage. After dosing, blood samples were collected via cardiac puncture at specific time points (n = 3 mice/time point) through 24 h (K2EDTA as an anticoagulant) and processed for plasma. Antibiotic concentrations in the plasma samples were analyzed by liquid chromatography-tandem mass spectrometry (LC-MS/MS). The LC-MS/MS analysis was conducted by using analyte/internal standard peak area methods. The internal standard was AN3365 ([21]), and the instrument used was an API4000 QTRAP instrument (AB Sciex). The limit of quantitation (LOQ) was 1 or 2 ng/ml. Pharmacokinetic analyses of the mean plasma concentration-time profiles were performed by using WinNonlin Pro version 5.2. A compartmental model was used for the data for i.v. dosing, and a noncompartmental model was used for the data for p.o. dosing. […] Compounds 1 and 13 were formulated in saline (0.9% [wt/vol] NaCl) at 7.5 mg/ml, and the pH was adjusted to >5 by the addition of NaOH. Compound 11 was formulated to 6.5 mg/ml in water-dimethylacetamide-ethanol (EtOH) (76:19:5), and the pH was adjusted to >5 by the addition of NaOH. Compound 12 was formulated to 7.5 mg/ml in PEG 300-propylene glycol (PG)-water (55:25:20), and the pH was adjusted to >5 by the addition of NaOH.

Structure (SMILES): CCOc1ccc(-c2ccccc2)c2c1B(O)OC2CN.Cl (centres unmarked) [Compound 10, 3-(Aminomethyl)-7-ethoxy-4-phenylbenzo[c][1,2]oxaborol-1(3H)-ol hydrochloride]
- EC50 (Vero cells): > 50 µM
- MIC (M. tuberculosis H37Rv [1]): 17 µg/mL
- IC50 (M. tuberculosis LeuRS; read-out: IC50 M.tb LeuRS): 28 µM

Structure (SMILES): CCOc1ccc(Cl)c2c1B(O)OC2CN (centres unmarked) [Compound 4]
- EC50 (Vero cells): > 50 µM
- improvement of MIC values over compound 1 (M. tuberculosis H37Rv [1]; M. tuberculosis H37Rv): more than 5 fold
- MIC (M. tuberculosis H37Rv [1]): 0.04 µg/mL (≈ 0.166 µM)
- IC50 (M. tuberculosis LeuRS): 0.09 µM

Structure (SMILES): CCOc1cccc2c1B(O)O[C@H]2CN [Compound 3]
- EC50 (Vero cells): > 50 µM
- IC50 (M. tuberculosis LeuRS; read-out: IC50 M.tb LeuRS): 21 µM

Structure (SMILES): CC(=O)NC[C@H]1CN(c2ccc(N3CCOCC3)c(F)c2)C(=O)O1 [Linezolid, linezolid]
- EC50 (COX1 in HepG2 cells): 27.3 ± 10.8 µM
- MIC values used in kill kinetics experiment (M. tuberculosis H37Rv [1]): 0.6 µg/mL (≈ 1.78 µM)
- EC50 (SDHA in HepG2 cells): > 150 µM
- reduction in CFU (M. tuberculosis H37Rv [2]): 2.6 log10
- EC50 (HepG2 cells): > 150 µM

Structure (SMILES): CCOc1ccc(CC)c2c1B(O)OC2CN (centres unmarked) [Compound 9]
- EC50 (Vero cells): > 50 µM
- MIC (M. tuberculosis H37Rv [1]): 0.29 µg/mL (≈ 1.23 µM)
- IC50 (M. tuberculosis LeuRS; read-out: IC50 M.tb LeuRS): 0.31 µM

Structure (SMILES): OB1OCc2ccccc21 [AN2679]
- MIC (M. tuberculosis H37Rv [1]): 7.5 µg/mL (≈ 56 µM)
- IC50 (M. tuberculosis LeuRS; read-out: IC50 M.tb LeuRS): 21.3 µM

Structure (SMILES): NCC1OB(O)c2ccccc21 (centres unmarked) [AN3017]
- MIC (M. tuberculosis H37Rv [1]): 1.8 µg/mL (≈ 11 µM)
- IC50 (M. tuberculosis LeuRS; read-out: IC50 M.tb LeuRS): 0.64 µM

Structure (SMILES): O=C(N[C@H](CO)[C@H](O)c1ccc([N+](=O)[O-])cc1)C(Cl)Cl [Chloramphenicol, chloramphenicol]
- EC50 (COX1 in HepG2 cells): 31.4 ± 23.2 µM
- EC50 (SDHA in HepG2 cells): > 150 µM
- EC50 (HepG2 cells): 110 ± 14.1 µM

Structure (SMILES): CCOc1cccc2c1B(O)O[C@@H]2CN [Compound 2]
- EC50 (Vero cells): > 50 µM
- MIC (M. tuberculosis H37Rv [1]): 0.13 µg/mL (≈ 0.628 µM)
- IC50 (M. tuberculosis LeuRS; read-out: IC50 M.tb LeuRS): 0.13 µM
- No. of sites [3]: 1.05
- ΔGap [3]: -7.4 kcal/mol
- ΔHap [3]: -1.1 kcal/mol
- −TΔSap [3]: -6.3 kcal/mol
- Kd ([3]; read-out: Kd): 3.7 µM
- fraction unbound (in vitro): 0.94
- α-t1/2 % AUC (in vivo; i.v.): 5 % AUC
- β-t1/2 % AUC (in vivo; i.v.): 95 % AUC
- AUC(0-inf) (in vivo; in vivo, iv): 13800 ng·h/mL
- Cmax (in vivo; in vivo, iv): 8900 ng/mL
- MRT (in vivo; in vivo, iv): 2.1 h
- Vd (in vivo; in vivo, iv): 2.12 L/kg
- clearance (in vivo; in vivo, iv): 36.3 mL/min/kg
- half-life (in vivo; in vivo, iv, α-t1/2, mouse): 0.06 h
- half-life (in vivo; in vivo, iv, β-t1/2, mouse): 1.5 h
- AUC(0-t) (in vivo; in vivo, po): 13200 ng·h/mL
- Cmax (in vivo; in vivo, po): 3400 ng/mL
- Tmax (in vivo; in vivo, po): 0.5 h
- bioavailability (in vivo; in vivo, po): 96%
- half-life (in vivo; in vivo, po, Terminal t1/2, mouse): 1.8 h

Source: PMC5038265 (Antimicrobial Agents and Chemotherapy, 2016)
